For series [1] the following is noted: source not stated; cited from earlier work.
The conditions of series [2]: rats; cited from earlier work.
Details of series [3]: method as in PMID 3146521. The conditions noted are these: female rats, 200 mg/kg oral gavage, cited from earlier work.
Details of series [4]: method as in PMID 390116. The conditions noted are these: mean ± standard error; cited from earlier work.
The conditions of series [5]: human; cited from earlier work.
Details of series [6]: method as in PMID 390116. The note with it: whole blood concentrations, cited from earlier work.
A short description of series [7]: Pharmacokinetics of VPA from DBS drug levels after intravenous bolus in rats. Type of series: in vivo. The conditions noted are these: Sprague-Dawley, rat, dried blood spots (whole blood), iv bolus 200 mg/kg, mean ± SD; for AUC(0-t): read-out: Area under the curve (AUC0–8 h); for clearance: read-out: Clearance (CL) (converted); for half-life: read-out: HL Lambda Z (terminal elimination half-life) (converted); for MRT: read-out: Mean residence time (MRT); for Vd: read-out: Volume of distribution (Vd). As for the experimental part:
Sprague-Dawley rats (7–8 weeks old, males: 10, females: 10) were obtained from the Comparative Medicine Center (CMC) of NUS. The rats were housed in a specific pathogen free animal facility (24 °C, 60% relative humidity) at CMC and kept on a 12-h light/dark cycle with free access to food and water. Twenty-four hours before the study, a polyethylene tubing (I.D. 0.58 mm, O.D. 0.965 mm, Becton Dickinson, Sparks, MD 21152, USA) was implanted into the right jugular vein under isoflurane anesthesia. This catheter was used for drug injection and blood sampling.
At 9 am on the study day, five rats from each gender were administered VPA intravenously at a dose of 200 mg/kg body weight (treatment group). The rest of the 5 rats from each gender were given sodium chloride 0.9% intravenously, as the placebo control group. Prior to VPA administration, blood samples (approximately 300 µL) from each of the 10 male rats and 10 female rats were collected and kept in an ice box until they were processed. After VPA/saline injection, blood samples were collected at 0.5, 2.5, 5, 8 and 24 h, respectively, from the 20 rats. The 6 time points were anticipated to capture the metabolite fluctuations in a day. Within 30 min of collection, the blood samples were spotted in duplicates of 25 µL onto Guthrie paper (UK Neonatal Screening Laboratories Network, Whatman 903®) and were left to dry in the fume hood for at least 3 h, the minimum time required for complete dryness. After drying, the DBS were punched, and the cores (6 mm) obtained were placed inside the respective Eppendorf tubes. All the acquired DBS were stored at −80 °C until processing for analysis. One DBS was used for metabolomic analysis and the other one was used for drug level quantification.
Extraction of VPA from DBS was carried out using 480 µL of acetonitrile and 20 µL of 1 N NaOH, vortexed for 1 min and followed by sonication for 5 min. The resulting extracts were centrifuged at 3500× g, 22 °C for 15 min [29, 30]. An amount of 400 µL of the supernatant were transferred into 15 mL Kimble centrifuge glass tubes for drying under a stream of nitrogen at 30 °C, followed by the removal of water using toluene and drying under nitrogen again. The dried sample was then derivatized using 50 µL MSTFA with 1% TMCS with incubation at 70 °C for an optimum period of 50 min. […] After vortexing for 1 min, 80 µL of the final volume was transferred into a 200 µL conical base inert glass insert, placed inside a 2 mL amber autosampler glass vial.
An assay for quantification of VPA concentrations in DBS was optimized in accordance to the International Conference of Harmonization (ICH) guideline. The settings were as follows: an injection temperature of 200 °C, ion source temperature of 220 °C, split ratio of 1:5, the starting temperature set at 90 °C for 0.2 min, with initial gradient ramp at 10 °C/min to 120 °C and held for 0.5 min. The temperature was then increased at 65 °C/min up to 285 °C and held for another 0.5 min. The temperature ramp was then reduced to 10 °C/min to reach a temperature of 291 °C and held for 0.2 min, before continuing at 60 °C/min to reach a final temperature of 300 °C, with a hold at 300 °C for 5 min. Selective ion monitoring (SIM) mode was applied for identifier ions with an m/z value of 201 and qualifying ions with m/z values of 145 and 129. A calibration curve was established with 6 concentrations, ranging from 0.5 µg/mL to 5 mg/mL.
Concentration-time profiles of VPA after intravenous bolus injection were fitted into a non-compartmental model (WinNonlin Professional, Version 5.1, Pharsight Corporation, Mountain View, CA, USA). The pharmacokinetic parameters obtained included the area under the DBS concentration versus time curve (AUC0–8 h), apparent volume of distribution (Vd) clearance (Cl), terminal elimination half-life (HL Lambda Z) and mean residence time (MRT) of VPA.

The mark [8] stands for this setting: both sexes, all rats (male and female pooled).

Structures are written as SMILES. Like-named read-outs stand apart in the source and are kept apart here.

As a reminder, the LogP is a log measure of how a compound divides between an organic and an aqueous phase. As a reminder, the AUC is the area under the concentration-time curve, a measure of exposure. As usually defined, the Vd is the apparent volume that relates the amount in the body to the concentration in plasma or blood. What is called clearance is the volume of plasma or blood freed of the substance per unit of time. The half-life is how long it takes for the measured level to halve. The term MRT denotes the average time that molecules of a dose stay in the body.

In the case of `CCCCCCCCCCCCCCCC(=O)O` [Palmitic acid], the LogP in series [1] is listed as 6.26.

For the molecule `CCCC(CCC)C(=O)O` [VPA, 2-propyl-pentanoic acid], the Protein bound in series [2] is 64%. In addition, in series [3] (plasma), the AUC is 1019 ± 769 µg·h/mL and the “Maximum concentration (Cmax) at 0.5 h” value is 341 ± 18 µg/mL. Also, the “t1/2 (plasma half-life)” value in series [3] is 1.0 ± 0.2 h. Moreover, the “Plasma/whole blood concentrations ratio” value in series [4] was 1.46 ± 0.03. Also, in series [5], the Protein bound is 90%. Further, in series [6] (male rats, 150 mg/kg), the t1/2 is recorded as 0.68 h. Moreover, in series [6] (rats dosed at 15 mg/kg), the CL is 0.525 ± 0.065 L/h and the Vd is 0.155 ± 0.025 L. For the same molecule, in series [7] (female rats), the AUC(0-t) is 363 ± 18.7 µg·h/mL, the clearance was 2 mL/min, the half-life is 2.01 ± 0.24 h and the MRT is 1.46 ± 0.4 h. In addition, the Vd in series [7] (female rats) stood at 0.21 ± 0.01 L. Moreover, in series [7] (male rats), the AUC(0-t) was determined as 126 ± 39.2 µg·h/mL, the clearance is 8.5 mL/min, the half-life is 1.71 ± 0.18 h and the MRT was determined as 1.14 ± 0.28 h. Also, the Vd in series [7] (male rats) was found to be 0.82 ± 0.23 L. Further, in series [7] (setting [8]), the AUC(0-t) turned out to be 245 ± 133 µg·h/mL, the clearance is 5.33 mL/min, the half-life was 1.86 ± 0.26 h and the MRT is 1.3 ± 0.36 h. The Vd in series [7] (setting [8]) is 0.51 ± 0.36 L.

Turning to `CC(C)CCC[C@@H](C)[C@H]1CC[C@H]2[C@@H]3CC=C4C[C@@H](O)CC[C@]4(C)[C@H]3CC[C@]12C` [Cholesterol], the LogP in series [1] is given as 7.11.

Consider `C[C@H](N)C(=O)O` [Alanine], for which the LogP in series [1] was -0.68.

Source of the values: paper PMC9266449, “Dried Blood Spots as Matrix for Evaluation of Valproate Levels and the Immediate and Delayed Metabolomic Changes Induced by Single Valproate Dose Treatment” (International Journal of Molecular Sciences, 2022).
